Patent publication US7417156B2, “Orally active, antimalarial, anticancer, artemisinin-derived trioxane dimers” (Johns Hopkins University, priority 2002, dated 2008)
pIC50: −log10 of the molar value.

Legend:
RXF 393 = experiment: NCI 60 cell line panel screen (SRB); assay type: cell-based, human
NCI-H23 = experiment: NCI 60 cell line panel screen (SRB); assay type: cell-based, human
HCT-116 = experiment: NCI 60 cell line panel screen (SRB); assay type: cell-based, human
NCI-H322M = assay type: cell-based
RPMI-8226 = experiment: NCI 60 cell line panel screen (SRB); assay type: cell-based, human
PC-3 = experiment: NCI 60 cell line panel screen (SRB); assay type: cell-based, human
OVCAR-8 = experiment: NCI 60 cell line panel screen (SRB); assay type: cell-based, human
HOP-62 = experiment: NCI 60 cell line panel screen (SRB); assay type: cell-based, human
SNB-75 = experiment: NCI 60 cell line panel screen (SRB); assay type: cell-based, human; conditions: SNB-75 (CNS Cancer)
SK-MEL-28 = experiment: NCI 60 cell line panel screen (SRB); assay type: cell-based, human
HT29 = experiment: NCI 60 cell line panel screen (SRB); assay type: cell-based, human
[1] = test system: chloroquine-sensitive P. falciparum (NF54); experiment: Antimalarial activity in vitro, [3H]hypoxanthine incorporation; assay type: cell-based; conditions: Plasmodium falciparum, NF54, Table I; NF54 strain; read-out: IC50
NCI/ADR-RES = experiment: NCI 60 cell line panel screen (SRB); assay type: cell-based, human
ACHN = experiment: NCI 60 cell line panel screen (SRB); assay type: cell-based, human
IGROVI = experiment: NCI 60 cell line panel screen (SRB); assay type: cell-based, human
OVCAR-3 = experiment: NCI 60 cell line panel screen (SRB); assay type: cell-based, human
CAKI-1 = experiment: NCI 60 cell line panel screen (SRB); assay type: cell-based, human; conditions: CAKI-1 (Renal Cancer); LC50: PG=−50
SF-539 = experiment: NCI 60 cell line panel screen (SRB); assay type: cell-based, human
NCI-H460 = experiment: NCI 60 cell line panel screen (SRB); assay type: cell-based, human
60 cell line panel = assay type: cell-based
UACC-257 = experiment: NCI 60 cell line panel screen (SRB); assay type: cell-based, human
HOP-92 = experiment: NCI 60 cell line panel screen (SRB); assay type: cell-based, human
K-562 = experiment: NCI 60 cell line panel screen (SRB); assay type: cell-based, human
[2] = mean value over the 60 cell line panel

`C[C@@H]1CC[C@H]2[C@@H](C)C(CC(O)(COC(=O)CCC(=O)O)CC3OC4O[C@]5(C)CC[C@H]6[C@H](C)CC[C@@H]([C@H]3C)C46OO5)OC3O[C@]4(C)CCC1C32OO4` (stereo partly drawn) [Compound 9, tertiary alcohol primary succinate ester] was tested, and the Log10LC50 (RXF 393; RXF 393 (Renal Cancer), LC50: PG=−50) was >−4.30 log10M, the Log10TGI50 (RXF 393; RXF 393 (Renal Cancer), TGI: PG=0) was −4.45 log10M and the Log10GI50 (RXF 393; Renal Cancer, RXF 393) was −7.67. The Log10LC50 (NCI-H23; NCI-H23 (Non-Small Cell Lung Cancer), LC50: PG=−50) was >−4.30 log10M, the Log10TGI50 (NCI-H23; NCI-H23 (Non-Small Cell Lung Cancer), TGI: PG=0) was −4.65 log10M and the Log10GI50 (NCI-H23; Non-Small Cell Lung Cancer, NCI-H23) was <−8.30. For the same compound, the Log10GI50 (HCT-116; Colon Cancer, HCT-116) was <−8.30, the Log10LC50 (HCT-116; HCT-116 (Colon Cancer), LC50: PG=−50) was >−4.30 log10M and the Log10TGI50 (HCT-116; HCT-116 (Colon Cancer), TGI: PG=0) was >−4.30 log10M. For the same compound, the Log10TGI50 (NCI-H322M; NCI-H322M (Non-Small Cell Lung Cancer), TGI: PG=0) was >−4.30 log10M, the Log10GI50 (NCI-H322M; Non-Small Cell Lung Cancer, NCI-H322M) was −5.07 and the Log10GI50 (RPMI-8226; Leukemia, RPMI-8226) was <−8.30. The Log10LC50 (RPMI-8226; RPMI-8226 (Leukemia), LC50: PG=−50) was >−4.30 log10M, the Log10TGI50 (RPMI-8226; RPMI-8226 (Leukemia), TGI: PG=0) was >−4.30 log10M and the Log10LC50 (PC-3; PC-3 (Prostate Cancer), LC50: PG=−50) was >−4.30 log10M. For the same compound, the Log10TGI50 (PC-3; PC-3 (Prostate Cancer), TGI: PG=0) was >−4.30 log10M, the Log10GI50 (PC-3; Prostate Cancer, PC-3) was <−8.30 and the Log10LC50 (OVCAR-8; OVCAR-8 (Ovarian Cancer), LC50: PG=−50) was >−4.30 log10M. The Log10TGI50 (OVCAR-8; OVCAR-8 (Ovarian Cancer), TGI: PG=0) was >−4.30 log10M, the Log10GI50 (OVCAR-8; Ovarian Cancer, OVCAR-8) was −5.12 and the Log10LC50 (HOP-62; HOP-62 (Non-Small Cell Lung Cancer), LC50: PG=−50) was >−4.30 log10M. For the same compound, the Log10TGI50 (HOP-62; HOP-62 (Non-Small Cell Lung Cancer), TGI: PG=0) was >−4.30 log10M, the Log10GI50 (HOP-62; Non-Small Cell Lung Cancer, HOP-62) was −5.69 and the Log10LC50 (SNB-75; LC50: PG=−50) was >−4.30 log10M. The Log10TGI50 (SNB-75; TGI: PG=0) was >−4.30 log10M, the Log10GI50 (SK-MEL-28; Melanoma, SK-MEL-28) was <−8.30 and the Log10LC50 (SK-MEL-28; SK-MEL-28 (Melanoma), LC50: PG=−50) was >−4.30 log10M. The Log10TGI50 (SK-MEL-28; SK-MEL-28 (Melanoma), TGI: PG=0) was >−4.30 log10M, the Log10GI50 (HT29; Colon Cancer, HT29) was <−8.30 and the Log10LC50 (HT29; HT29 (Colon Cancer), LC50: PG=−50) was >−4.30 log10M. For the same compound, the pIC50 [1] was 8.52, the Log10GI50 (NCI/ADR-RES; Breast Cancer, NCI/ADR-RES) was −5.61 and the Log10LC50 (NCI/ADR-RES; NCI/ADR-RES (Breast Cancer), LC50: PG=−50) was >−4.30 log10M. The Log10TGI50 (NCI/ADR-RES; NCI/ADR-RES (Breast Cancer), TGI: PG=0) was >−4.30 log10M, the Log10LC50 (ACHN; ACHN (Renal Cancer), LC50: PG=−50) was >−4.30 log10M and the Log10TGI50 (ACHN; ACHN (Renal Cancer), TGI: PG=0) was −4.74 log10M. The Log10GI50 (ACHN; Renal Cancer, ACHN) was −6.67, the Log10LC50 (IGROVI; IGROVI (Ovarian Cancer), LC50: PG=−50) was >−4.30 log10M and the Log10TGI50 (IGROVI; IGROVI (Ovarian Cancer), TGI: PG=0) was >−4.30 log10M. The Log10GI50 (IGROVI; Ovarian Cancer, IGROVI) was −4.97, the Log10LC50 (OVCAR-3; OVCAR-3 (Ovarian Cancer), LC50: PG=−50) was >−4.30 log10M and the Log10TGI50 (OVCAR-3; OVCAR-3 (Ovarian Cancer), TGI: PG=0) was <−8.30 log10M. For the same compound, the Log10GI50 (OVCAR-3; Ovarian Cancer, OVCAR-3) was <−8.30, the Log10LC50 (CAKI-1) was >−4.30 log10M and the Log10GI50 (SF-539; CNS Cancer, SF-539) was −4.90. The Log10LC50 (SF-539; SF-539 (CNS Cancer), LC50: PG=−50) was >−4.30 log10M, the Log10TGI50 (SF-539; SF-539 (CNS Cancer), TGI: PG=0) was −4.50 log10M and the Log10LC50 (NCI-H460; NCI-H460 (Non-Small Cell Lung Cancer), LC50: PG=−50) was >−4.30 log10M. For the same compound, the Log10TGI50 (NCI-H460; NCI-H460 (Non-Small Cell Lung Cancer), TGI: PG=0) was >−4.30 log10M, the Log10GI50 (NCI-H460; Non-Small Cell Lung Cancer, NCI-H460) was <−8.30 and the “Log10GI50 Delta” value (60 cell line panel) was 1.28. For the same compound, the “Log10GI50 Range” value (60 cell line panel) was 3.94, the “Log10LC50 Delta” value (60 cell line panel; 60 cell line panel) was 0.29 and the “Log10LC50 Range” value (60 cell line panel; 60 cell line panel) was 0.30. For the same compound, the “Log10TGI50 Delta” value (60 cell line panel; 60 cell line panel) was 3.58, the “Log10TGI50 Range” value (60 cell line panel; 60 cell line panel) was 4.00 and the “growth inhibition in words” value (60 cell line panel; colon cancer KM12, ovarian cancer OVCAR 3, breast cancer MDA-MB-435) was “selectively and strong inhibitory”. For the same compound, the “Log10GI50 MG MID” value (60 cell line panel; mean over panel) was −7.02, the “Log10LC50 MG MID” value (60 cell line panel; [2]) was −4.31 log10M and the “Log10TGI50 MG MID” value (60 cell line panel; [2]) was −4.72 log10M. For the same compound, the Log10GI50 (UACC-257; Melanoma, UACC-257) was −4.89, the Log10LC50 (UACC-257; UACC-257 (Melanoma), LC50: PG=−50) was >−4.30 log10M and the Log10TGI50 (UACC-257; UACC-257 (Melanoma), TGI: PG=0) was >−4.30 log10M. For the same compound, the Log10LC50 (HOP-92; HOP-92 (Non-Small Cell Lung Cancer), LC50: PG=−50) was >−4.30 log10M, the Log10TGI50 (HOP-92; HOP-92 (Non-Small Cell Lung Cancer), TGI: PG=0) was >−4.30 log10M and the Log10GI50 (HOP-92; Non-Small Cell Lung Cancer, HOP-92) was <−8.30. For the same compound, the Log10LC50 (K-562; K-562 (Leukemia), LC50: PG=−50) was >−4.30 log10M, the Log10TGI50 (K-562; K-562 (Leukemia), TGI: PG=0) was >−4.30 log10M and the Log10GI50 (K-562; Leukemia, K-562) was −8.30.
